Laboratory results reported in patent US10080366B2, “Agent for increasing sugar content in fruit” (RIKEN, priority 2012, dated 2018).
“And” between values parts separate entries of the source, which are not always exact repeats. Equal entries are not always repeated. Where two headings read alike, the source gives them in different places.

What was measured:
[1] = tested on: fruit of grape (variety: Steuben); conditions: 10 g/L
Protocol: An agent for increasing a sugar content in a fruit (containing Sorbon T-20 as a spreader/sticker at a final concentration of 200 μL/L) diluted with water to contain potassium hydrogen carbonate at 10 g/L was prepared. The mass of fruit of grape (variety: Steuben) purchased on the market was measured. Then, the prepared agent for increasing a sugar content in a fruit was applied by spraying to the fruit of grape. The fruit of grape was allowed to stand in an air-conditioned greenhouse (temperature: 25° C.), and the mass was measured over time (date of application: Feb. 7, 2011). In addition, as a control, the mass of untreated grape was measured on each of the dates of measurement in the same manner.

fruits of cherry tomato = tested on: fruits of cherry tomato
Protocol: (§1) An agent for increasing a sugar content in a fruit (containing Sorbon T-20 as a spreader/sticker at a final concentration of 200 μL/L) diluted with water to have a potassium hydrogen carbonate concentration of 10 g/L was prepared. The masses of fruits of apple and cherry tomato purchased on the market were measured. Then, the prepared agent for increasing a sugar content in a fruit was applied by spraying to the fruits. The fruits were allowed to stand still in an air-conditioned greenhouse, and the masses of the apples and cherry tomatoes were measured on the date of application (date of application: Nov. 30, 2011; date of test: Dec. 5, 2011). In addition, as a control, the masses of untreated apples and cherry tomatoes were measured in the same manner.
(§2) The estimated transpiration ratio (%) was calculated by “the estimated amount (g) of transpiration/the mass (g) before application×100.”
(§3) The transpiration ratio was calculated by “the estimated transpiration ratio of the target sample (treated by application of potassium hydrogen carbonate or untreated)/the estimated transpiration ratio of the untreated sample.”

fruits of apple = tested on: fruits of apple
Protocol: as §1, §2, §3

[2] = tested on: grapes (varieties: Chardonnay, Pinot noir, Merlot, and Cabernet Sauvignon); conditions: for sugar content in fruit compared with untreated: 3000 L/ha, entire vines, repeated, all four varieties
Protocol: To the entire vines including leaves and stems of grapes (varieties: Chardonnay, Pinot noir, Merlot, and Cabernet Sauvignon, 7 years old) in a farm field, an agent (containing Sorbon T-20 as a spreader/sticker at a concentration of 200 μL/L) for increasing a sugar content in a fruit diluted with water to have a potassium hydrogen carbonate concentration of 5 g/L or 10 g/L was applied in a sufficient amount (3000 L/ha (in this case, the amount of potassium hydrogen carbonate was 15 kg/ha for the 5 g/L sample or 30 kg/ha for the 10 g/L sample) each time. The application was repeatedly conducted at intervals of approximately 2 weeks or approximately 1 week as shown in FIGS. 1 to 4. The sugar concentration in the fruit was measured over time. As a control, unapplied vines were provided. The sampling was started before the first application, and a sample was collected before each application, and measured for the sugar content. Three vines were used for each treated group. Note that the expected harvest dates were September 20 for Chardonnay, October 10 for Merlot, October 20 for Cabernet Sauvignon, and September 30 for Pinot noir.
For the measurement of the sugar content, three clusters were taken from each of the treated vines on each of the dates of measurement, and the juice was squeezed and measured for the Brix sugar content (%) with a refractometer for sugar content (manufactured by Atago Co., Ltd.). Likewise, the acidity (%) was also measured with an acidity meter (manufactured by Atago Co., Ltd.).

Cherry (Sato Nishiki) = conditions: 5 g/L, three times at intervals of 7 days; 28 days after first application
Source text: The water-soaked symptom in cherry is known to be caused by calcium deficiency. In this respect, an investigation was made as to whether or not the degree of occurrence of water-soaked symptom 28 days after the date of the first application was different between untreated cherries and cherries to which an aqueous potassium hydrogen carbonate solution (5 g/L) was applied three times at intervals of 7 days one month before the harvest time. […] The occurrence (%) of water-soaked symptom=the number of cherries in which the water-soaked symptom occurred/the number of cherries tested×100

O=C([O-])O.[K+] [Potassium hydrogen carbonate, potassium hydrogen carbonate]
increase of amount of transpiration in comparison with untreated ([1]; 7 days): approximately 25%
water lost per 100 g of grape ([1]; 7 days, decrease in mass assumed to be transpiration): approximately 25 ml
mass of fruit per 100 g on date of application, 1 day later ([1]; Feb. 8): 96.2 g
mass of fruit per 100 g on date of application, 2 days later ([1]; Feb. 9): 92.1 g
mass of fruit per 100 g on date of application, 3 days later ([1]; Feb. 10): 88.6 g
mass of fruit per 100 g on date of application, 7 days later ([1]; Feb. 14): 74.9 g
sugar content 7 days later (calculated) ([1]; assuming 15% on date of application): 20.0%
Transpiration ratio (treated/untreated) (fruits of cherry tomato; 10 g/L): 1.93
Mass (g) on date of test (fruits of cherry tomato; 10 g/L, Dec. 5): 193.30 g
Estimated amount (g) of transpiration (fruits of cherry tomato; 10 g/L, Nov. 30 to Dec. 5): 21.75 g
Estimated transpiration ratio (%) (fruits of cherry tomato; 10 g/L, Nov. 30 to Dec. 5): 10.12%
Mass (g) before application (fruits of cherry tomato; Nov. 30): 215.05 g
Transpiration ratio (treated/untreated) (fruits of apple; 10 g/L): 1.65
Mass (g) on date of test (fruits of apple; 10 g/L, Dec. 5): 263.69 g and 274.65 g
Estimated amount (g) of transpiration (fruits of apple; 10 g/L, Nov. 30 to Dec. 5): 9.15 g and 11.66 g
Estimated transpiration ratio (%) (fruits of apple; 10 g/L, Nov. 30 to Dec. 5): 3.35% and 3.72%
Estimated transpiration ratio (average) (%) (fruits of apple; 10 g/L, average of two apples): 3.54%
Mass (g) before application (fruits of apple; Nov. 30): 272.84 g and 286.31 g
acidity compared with untreated ([2]; 5 g/L or 10 g/L): kept equal to or slightly higher than that of the untreated group
sugar content in fruit compared with untreated ([2]; 5 g/L): greater increase in sugar content than the untreated fruit of grape
sugar content in fruit compared with untreated ([2]; 10 g/L): greater increase in sugar content than the untreated fruit of grape
Occurrence (%) of water-soaked symptom (Cherry (Sato Nishiki)): 7%
